Laboratory results from US7981904B2, “Acetyl CoA carboxylase inhibitors” (Takeda Pharmaceutical Company Limited, priority 2008, dated 2011).

Columns and labels:
Human ACC1 = molecular target: T1, Human ACC1 (Homo sapiens, UniProt Q13085); assay: in vitro enzymatic ACC activity assay (malachite green, absorbance at 620 nm), ACC1; format: biochemical; conditions: recombinant His-tagged human ACC1, 8 μg/mL; 60 min preincubation, 20 min reaction at 30° C.
T1 construct: made in house; host or cells: SF-9 insect cells (baculovirus, pFAST-BacHTc)
Experimental: (§1) Provided in Example A is an in vitro enzymatic ACC activity assay for activity against ACC. The binding affinity of the test compound to ACC1 or ACC2 is determined by the changes in absorbance (at 620 nm); […]. It should be noted that a variety of other expression systems and hosts are also suitable for the expression of ACC, as would be readily appreciated by one of skill in the art.
A. Purification of Human ACC1
Human ACC1 cDNA was amplified from human liver cDNA by polymerase chain reaction using primers; 5′[…]3′ (SEQ ID NO. 1) and 5′[…]3′ (SEQ ID NO: 2). The amplified DNA fragment was digested by restriction enzyme SalI and NotI, and cloned into pFAST-BacHTc (Invitrogen). This plasmid DNA was used for preparation of recombinant vaculovirus with BAC-TO-BAC Baculovirus Expression System (Invitrogen).
SF-9 cells were infected with the vaculovirus and cultured at 27° C. for 3 days. Harvested cells were homogenized in buffer A (25 mM HEPES (pH7.5), 130 mM NaCl, 1 mM EDTA, 25 mM sodium glycerophosphate, 1 mM sodium orthovanadate, 10% glycerol, complete protease inhibitor), and subjected to ultracentrifuge at 185700×g for 50 min at 4° C. ACC1 protein with 6×His-tag at the N-terminal was purified from the supernatant using Ni-NTA Super Flow Gel (QIAGEN). Eluted protein was dialysed against buffer B (50 mM HEPES (pH 7.5), 300 mM NaCl, 10 mM MgCl2, 10 mM tripotassium citrate, 2 mM dithiothreitol) and concentrated using Vivaspin20 ultrafiltration tube (Sartorius).
(§2) C. Measurement of ACC Activity
(§3) Malachite green solution was prepared by mixing 100 mL of solution A (0.12% malachite green in 5N H2SO4), 25 mL of solution B (7.5% ammonium molybdate) and 2 mL of solution C (11% TWEEN-20).
(§4) ACC1 was diluted to 8 μg/mL in reaction buffer (50 mM HEPES pH7.5, 10 mM MgCl2, 10 mM tripotassium citrate, 2 mM DTT, 0.75 mg/mL fatty acid free BSA) and 10 μL diluted enzyme solution was pored into each well of 384-well clear bottom plate. Test compound was diluted in the reaction buffer and 5 μL of the compound solution was added into each well, and the mixture was incubated at 30° C. for 60 minutes. Reaction was initiated by addition of 5 μL substrate solution (50 mM KHCO3, 200 μM ATP, 200 μM acetyl-CoA). After incubation at 30° C. for 20 minutes, reaction was terminated by addition of 5 μL malachite green solution and absorbance at 620 nm was measured.
(§5) Percent activity at each concentration of compound was calculated from the following equation:
(§6) [formula] where Abs is absorbance, Avg is average.
(§7) Data were subjected to nonlinear regression analysis using GraphPad Prism Software (GraphPad Software Inc.) to obtain IC50 values.

Human ACC2 = molecular target: T2, Human ACC2 (Homo sapiens, UniProt O00763); assay: in vitro enzymatic ACC activity assay (malachite green, absorbance at 620 nm), ACC2; format: biochemical; conditions: recombinant His-tagged human ACC2, 6.4 μg/mL; same method as ACC1
T2 construct: made in house; host or cells: SF-9 insect cells (baculovirus, pFAST-BacHTa)
T2 sequence (O00763 117-2458 limits assumed): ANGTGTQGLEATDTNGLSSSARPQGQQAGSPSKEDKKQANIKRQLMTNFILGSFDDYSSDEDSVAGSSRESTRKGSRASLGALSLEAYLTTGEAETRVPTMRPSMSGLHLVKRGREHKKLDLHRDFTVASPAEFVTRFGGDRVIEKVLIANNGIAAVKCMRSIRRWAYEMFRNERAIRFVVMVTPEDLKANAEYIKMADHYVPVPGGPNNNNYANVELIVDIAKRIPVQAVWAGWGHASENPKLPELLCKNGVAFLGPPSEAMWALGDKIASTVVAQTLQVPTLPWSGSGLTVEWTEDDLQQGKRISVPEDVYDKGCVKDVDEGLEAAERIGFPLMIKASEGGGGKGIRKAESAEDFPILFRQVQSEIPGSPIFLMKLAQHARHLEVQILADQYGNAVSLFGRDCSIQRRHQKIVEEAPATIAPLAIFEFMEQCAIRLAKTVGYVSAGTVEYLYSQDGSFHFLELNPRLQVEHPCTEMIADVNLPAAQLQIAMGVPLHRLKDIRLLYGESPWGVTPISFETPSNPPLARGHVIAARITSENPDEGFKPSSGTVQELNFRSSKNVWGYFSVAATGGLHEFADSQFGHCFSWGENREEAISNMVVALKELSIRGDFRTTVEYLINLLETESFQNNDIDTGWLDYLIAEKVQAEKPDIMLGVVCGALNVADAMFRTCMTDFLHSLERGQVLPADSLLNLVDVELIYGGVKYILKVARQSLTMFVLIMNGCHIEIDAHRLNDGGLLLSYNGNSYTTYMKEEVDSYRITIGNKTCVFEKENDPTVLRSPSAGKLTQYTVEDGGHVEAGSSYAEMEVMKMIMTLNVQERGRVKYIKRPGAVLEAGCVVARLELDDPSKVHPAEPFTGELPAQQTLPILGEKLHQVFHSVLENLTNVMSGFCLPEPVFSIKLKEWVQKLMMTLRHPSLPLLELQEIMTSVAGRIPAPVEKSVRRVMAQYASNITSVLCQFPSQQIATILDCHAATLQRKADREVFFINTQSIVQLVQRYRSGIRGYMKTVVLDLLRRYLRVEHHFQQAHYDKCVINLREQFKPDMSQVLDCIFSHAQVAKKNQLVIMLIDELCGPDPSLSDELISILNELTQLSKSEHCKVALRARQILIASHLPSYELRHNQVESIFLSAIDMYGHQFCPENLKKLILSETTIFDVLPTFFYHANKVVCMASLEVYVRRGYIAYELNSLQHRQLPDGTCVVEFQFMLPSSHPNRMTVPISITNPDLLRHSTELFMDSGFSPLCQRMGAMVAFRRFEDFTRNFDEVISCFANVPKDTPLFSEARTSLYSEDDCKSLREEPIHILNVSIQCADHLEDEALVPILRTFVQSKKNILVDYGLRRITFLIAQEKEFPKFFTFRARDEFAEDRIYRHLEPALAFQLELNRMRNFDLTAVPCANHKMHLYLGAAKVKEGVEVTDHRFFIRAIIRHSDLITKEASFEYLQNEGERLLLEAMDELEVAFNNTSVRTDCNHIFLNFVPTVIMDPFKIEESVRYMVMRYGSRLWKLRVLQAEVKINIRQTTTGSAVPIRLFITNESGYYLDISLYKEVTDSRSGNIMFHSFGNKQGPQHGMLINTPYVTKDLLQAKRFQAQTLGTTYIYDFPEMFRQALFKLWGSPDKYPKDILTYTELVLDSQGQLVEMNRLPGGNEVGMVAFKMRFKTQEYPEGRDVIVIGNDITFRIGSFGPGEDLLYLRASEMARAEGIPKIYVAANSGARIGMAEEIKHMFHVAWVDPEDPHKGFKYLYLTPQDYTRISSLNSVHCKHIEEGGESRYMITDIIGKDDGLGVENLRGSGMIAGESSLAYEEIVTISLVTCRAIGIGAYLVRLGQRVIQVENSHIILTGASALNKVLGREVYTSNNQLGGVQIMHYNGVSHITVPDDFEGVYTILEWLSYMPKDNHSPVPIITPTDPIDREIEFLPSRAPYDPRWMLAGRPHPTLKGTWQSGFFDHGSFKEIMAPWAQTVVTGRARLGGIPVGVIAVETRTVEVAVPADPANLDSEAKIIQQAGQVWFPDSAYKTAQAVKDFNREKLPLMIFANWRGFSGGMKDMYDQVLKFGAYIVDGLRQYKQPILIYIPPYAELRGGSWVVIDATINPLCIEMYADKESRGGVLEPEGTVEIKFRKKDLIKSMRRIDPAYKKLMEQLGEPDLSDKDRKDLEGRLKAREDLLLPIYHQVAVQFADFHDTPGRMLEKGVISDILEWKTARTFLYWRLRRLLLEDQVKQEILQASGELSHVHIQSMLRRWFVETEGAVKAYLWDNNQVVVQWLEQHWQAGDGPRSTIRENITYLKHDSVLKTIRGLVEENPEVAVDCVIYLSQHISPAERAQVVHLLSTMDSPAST
Experimental: as §1
B. Purification of Human ACC2
Human ACC2 cDNA except coding region for mitochondria localization sequence was amplified from human skeletal muscle cDNA by polymerase chain reaction using primers; 5′[…]3′ (SEQ ID NO: 3) and 5′[…]3′ (SEQ ID NO: 4). The amplified DNA fragment was digested by SalI and AflIII, and cloned into pFAST-BacHTa (Invitrogen). Preparation of recombinant vaculovirus, infection of the virus to SF-9 cells and purification of recombinant ACC2 protein with 6×His-tag at the N-terminal were performed in the same method as described above.
as §2, §3, §4
ACC2 was diluted to 6.4 μg/mL in reaction buffer, and the activity was measured by the same method as described for ACC1.
as §5, §6, §7

Row | Structure (SMILES) | IC50 (Human ACC1) | IC50 (Human ACC2)
1 | CCNC(=O)Nc1sc2c(OC)cccc2c1C(=O)N1CCC2(CC1)N=C(CCl)NC2=O [Compound 9, 1-(3-(2-(chloromethyl)-4-oxo-1,3,8-triazaspiro[4.5]dec-1-enecarbonyl)-7-methoxybenzo[b]thiophen-2-yl)-3-ethylurea] | 1 to 10 µM | 1 to 10 µM
2 | CCNC(=O)Nc1sc2c(OC)cccc2c1C(=O)N1CCC2(CC1)N=C(COC1CCCCC1)NC2=O [Compound 32, 1-(3-(2-(cyclohexyloxymethyl)-4-oxo-1,3,8-triazaspiro[4.5]dec-1-enecarbonyl)-7-methoxybenzo[b]thiophen-2-yl)-3-ethylurea] | < 1 µM | < 1 µM
3 | CCNC(=O)Nc1sc2c(OC)cccc2c1C(=O)N1CCC2(CC1)NC(c1ccccc1)=NC2=O [Compound 18, 1-ethyl-3-(7-methoxy-3-(4-oxo-2-phenyl-1,3,8-triazaspiro[4.5]dec-2-enecarbonyl)benzo[b]thiophen-2-yl)urea] | 1 to 10 µM | < 1 µM
4 | CCNC(=O)Nc1sc2ccccc2c1C(=O)N1CCC(N)(C#N)CC1 [Compound 6, 1-(3-(4-amino-4-cyanopiperidine-1-carbonyl)benzo[b]thiophen-2-yl)-3-ethylurea] | > 10 µM | > 10 µM
5 | CCNC(=O)Nc1sc2ccccc2c1C(=O)N1CCC2(CC1)N=C(COCC(C)C)NC2=O [Compound 30, 1-ethyl-3-(3-(2-(isobutoxymethyl)-4-oxo-1,3,8-triazaspiro[4.5]dec-1-enecarbonyl)benzo[b]thiophen-2-yl)urea] | 1 to 10 µM | < 1 µM
6 | CCNC(=O)Nc1sc2ccccc2c1C(=O)N1CCC2(CC1)N=C(CSC(C)C)NC2=O [Compound 22, 1-ethyl-3-(3-(2-(isopropylthiomethyl)-4-oxo-1,3,8-triazaspiro[4.5]dec-1-enecarbonyl)benzo[b]thiophen-2-yl)urea] | 1 to 10 µM | < 1 µM
7 | CCNC(=O)Nc1sc2ccccc2c1C(=O)N1CCC2(CC1)N=C(COc1ccccc1C#N)NC2=O [Compound 26, 1-(3-(2-((2-cyanophenoxy)methyl)-4-oxo-1,3,8-triazaspiro[4.5]dec-1-enecarbonyl)benzo[b]thiophen-2-yl)-3-ethylurea] | > 10 µM | < 1 µM
8 | CCNC(=O)Nc1sc2ccccc2c1C(=O)N1CCC2(CC1)N=C(CCl)NC2=O [Compound 8, 1-(3-(2-(chloromethyl)-4-oxo-1,3,8-triazaspiro[4.5]dec-1-enecarbonyl)benzo[b]thiophen-2-yl)-3-ethylurea] | > 10 µM | 1 to 10 µM
9 | CCNC(=O)Nc1sc2ccccc2c1C(=O)N1CCC2(CC1)N=C(CCC(=O)N1CCCCC1)NC2=O [Compound 13, 1-ethyl-3-(3-(4-oxo-2-(3-oxo-3-(piperidin-1-yl)propyl)-1,3,8-triazaspiro[4.5]dec-1-enecarbonyl)benzo[b]thiophen-2-yl)urea] | 1 to 10 µM | < 1 µM
10 | CCNC(=O)Nc1sc2ccccc2c1C(=O)N1CCC2(CC1)N=C(CS(=O)(=O)C(C)C)NC2=O [Compound 24, 1-ethyl-3-(3-(2-(isopropylsulfonylmethyl)-4-oxo-1,3,8-triazaspiro[4.5]dec-1-enecarbonyl)benzo[b]thiophen-2-yl)urea] | 1 to 10 µM | < 1 µM
11 | CCNC(=O)Nc1sc2ccccc2c1C(=O)N1CCC(N)(C(N)=O)CC1 [Compound 7, 4-amino-1-(2-(3-ethylureido)benzo[b]thiophene-3-carbonyl)piperidine-4-carboxamide] | > 10 µM | > 10 µM
12 | CCNC(=O)Nc1sc2ccccc2c1C(=O)N1CCC2(CC1)N=C(COc1ccccc1C(N)=O)NC2=O [Compound 27, 2-((8-(2-(3-ethylureido)benzo[b]thiophene-3-carbonyl)-4-oxo-1,3,8-triazaspiro[4.5]dec-1-en-2-yl)methoxy)benzamide] | > 10 µM | < 1 µM
13 | CCNC(=O)Nc1sc2ccccc2c1C(=O)N1CCC2(CC1)N=C(CCC(=O)N(CC)CC)NC2=O [Compound 12, N,N-diethyl-3-(8-(2-(3-ethylureido)benzo[b]thiophene-3-carbonyl)-4-oxo-1,3,8-triazaspiro[4.5]dec-1-en-2-yl)propanamide] | 1 to 10 µM | 1 to 10 µM
